For seven molecules, MIC results are on record in ChEMBL document CHEMBL4627293, “Synthesis and in vitro activity of asymmetric indole-based bisamidine compounds against Gram-positive and Gram-negative pathogens” (2020).

Values after ≈ are worked out from the molar mass of the structure shown.

What all share (format): functional
Experiment [1] relates to Staphylococcus epidermidis. The experiment is described as follows: Antimicrobial activity against methicillin-susceptible Staphylococcus epidermidis ATCC 12228.
In experiment [2] the test system is Enterococcus faecalis. The experiment can be described thus: Antimicrobial activity against Vancomycin-sensitive Enterococcus faecalis ATCC 29212.
Experiment [3] concerns Klebsiella pneumoniae. The experiment can be described thus: Antimicrobial activity against ESBL-producing Klebsiella pneumoniae ATCC 700603.
In experiment [4] the test system is Klebsiella pneumoniae. The experiment can be described thus: Antimicrobial activity against NDM-1 producing Klebsiella pneumoniae ATCC BAA-2146.
For the next experiment, the system named is Providencia rettgeri. The experiment is described as follows: Antimicrobial activity against Providencia rettgeri ATCC 31052.
Experiment [5] has as its system Enterococcus faecalis. The experiment can be described thus: Antimicrobial activity against Vancomycin-resistant Enterococcus faecalis ATCC 51299.
In another experiment the test system is Escherichia coli. The experiment is described as follows: Antimicrobial activity against Escherichia coli ATCC 25922.
The subject of a further experiment is Proteus vulgaris. The experiment can be described thus: Antimicrobial activity against Proteus vulgaris ATCC 29905.
Another experiment relates to Citrobacter freundii. The experiment can be described thus: Antimicrobial activity against Citrobacter freundii ATCC 43864.
In experiment [6] the test system is Acinetobacter calcoaceticus. The experiment can be described thus: Antimicrobial activity against Acinetobacter calcoaceticus ATCC 19606.
Experiment [7] has as its system Staphylococcus aureus. The experiment is described as follows: Antimicrobial activity against methicillin-sensitive Staphylococcus aureus ATCC 29213.
Experiment [8] relates to Klebsiella pneumoniae. The experiment can be described thus: Antimicrobial activity against Klebsiella pneumoniae 7.
The subject of another experiment is Enterococcus faecium. The experiment is described as follows: Antimicrobial activity against vancomycin-resistant Enterococcus faecium ATCC 700221.
In the next experiment the test system is Pseudomonas aeruginosa. The experiment can be described thus: Antimicrobial activity against Pseudomonas aeruginosa ATCC 27853.
Experiment [9] deals with Staphylococcus aureus. The experiment can be described thus: Antimicrobial activity against methicillin- resistant Staphylococcus aureus ATCC 33591.

As usually defined, the MIC is the lowest concentration that inhibits growth of the organism. For `CN(C)C(=N)c1ccc2cc(-c3ccc(Oc4ccc(-c5cc6ccc(C(=N)N(C)C)cc6[nH]5)c(C(F)(F)F)c4)cc3)[nH]c2c1`, the MIC in experiment [1] is 2 µg/mL (≈ 3.29 µM); with Enterococcus faecalis [2] it was 8 µg/mL (≈ 13.1 µM); with Klebsiella pneumoniae [3], greater than 128 µg/mL; in the experiment on Klebsiella pneumoniae [4], greater than 128 µg/mL; against Providencia rettgeri it was greater than 128 µg/mL; in the experiment with Enterococcus faecalis [5], 8 µg/mL (≈ 13.1 µM). In addition, the MIC against Escherichia coli is 64 µg/mL (≈ 105 µM); in the experiment on Proteus vulgaris, 128 µg/mL (≈ 210 µM); with Citrobacter freundii, 64 µg/mL (≈ 105 µM); in experiment [6], greater than 128 µg/mL; in the experiment on Staphylococcus aureus [7] it was 2 µg/mL (≈ 3.29 µM); in the experiment on Klebsiella pneumoniae [8], greater than 128 µg/mL. Besides, the minimal inhibitory concentration (MIC) against Enterococcus faecium is 8 µg/mL (≈ 13.1 µM); in the experiment on Pseudomonas aeruginosa it was greater than 128 µg/mL; in the experiment with Staphylococcus aureus [9] it was 2 µg/mL (≈ 3.29 µM).
As to `CC(C)NC(=N)c1ccc2cc(-c3ccc(Oc4ccc(-c5cc6ccc(C(=N)NC(C)C)cc6[nH]5)c(C(F)(F)F)c4)cc3)[nH]c2c1`, the MIC is 2 µg/mL (≈ 3.14 µM) in experiment [1]; 2 µg/mL (≈ 3.14 µM) in the experiment on Enterococcus faecalis [2]; 16 µg/mL (≈ 25.1 µM) against Klebsiella pneumoniae [3]; 16 µg/mL (≈ 25.1 µM) against Klebsiella pneumoniae [4]; 64 µg/mL (≈ 101 µM) in the experiment with Providencia rettgeri; 2 µg/mL (≈ 3.14 µM) in the experiment with Enterococcus faecalis [5]. Besides, the MIC in the experiment with Escherichia coli is 16 µg/mL (≈ 25.1 µM); against Proteus vulgaris it was 16 µg/mL (≈ 25.1 µM); with Citrobacter freundii it was 16 µg/mL (≈ 25.1 µM); in experiment [6], 64 µg/mL (≈ 101 µM); with Staphylococcus aureus [7], 2 µg/mL (≈ 3.14 µM); in the experiment on Klebsiella pneumoniae [8], 16 µg/mL (≈ 25.1 µM). In addition, the MIC is 2 µg/mL (≈ 3.14 µM) against Enterococcus faecium, 32 µg/mL (≈ 50.3 µM) against Pseudomonas aeruginosa and 2 µg/mL (≈ 3.14 µM) with Staphylococcus aureus [9].
With `CNC(=N)c1ccc2cc(-c3ccc(Oc4ccc(-c5cc6ccc(C(=N)NC)cc6[nH]5)nc4)cc3)[nH]c2c1`, the MIC in experiment [1] came to 0.25 µg/mL (≈ 0.487 µM); against Enterococcus faecalis [2], 2 µg/mL (≈ 3.89 µM); against Klebsiella pneumoniae [3] it was 64 µg/mL (≈ 125 µM); in the experiment on Klebsiella pneumoniae [4], 64 µg/mL (≈ 125 µM); with Providencia rettgeri, 128 µg/mL (≈ 249 µM); with Enterococcus faecalis [5] it was 2 µg/mL (≈ 3.89 µM). For the same molecule, the MIC against Escherichia coli is 16 µg/mL (≈ 31.2 µM); in the experiment with Proteus vulgaris it was 128 µg/mL (≈ 249 µM); against Citrobacter freundii, 16 µg/mL (≈ 31.2 µM); in [6] it was greater than 128 µg/mL; in the experiment on Staphylococcus aureus [7] it was 2 µg/mL (≈ 3.89 µM); in the experiment on Klebsiella pneumoniae [8] it was 64 µg/mL (≈ 125 µM). Also, the minimal inhibitory concentration (MIC) in the experiment with Enterococcus faecium was found to be 1 µg/mL (≈ 1.95 µM); in the experiment on Pseudomonas aeruginosa, 64 µg/mL (≈ 125 µM); against Staphylococcus aureus [9] it was 2 µg/mL (≈ 3.89 µM).
On to `CN(C)C(=N)c1ccc2cc(-c3ccc(Oc4ccc(-c5cc6ccc(C(=N)N(C)C)cc6[nH]5)c(Cl)c4)cc3)[nH]c2c1`, for which the MIC is 2 µg/mL (≈ 3.48 µM) in [1]; 16 µg/mL (≈ 27.8 µM) in the experiment with Enterococcus faecalis [2]; greater than 128 µg/mL in the experiment with Klebsiella pneumoniae [3]; 128 µg/mL (≈ 223 µM) in the experiment with Klebsiella pneumoniae [4]; greater than 128 µg/mL with Providencia rettgeri; 16 µg/mL (≈ 27.8 µM) in the experiment with Enterococcus faecalis [5]. The MIC against Escherichia coli was 32 µg/mL (≈ 55.6 µM); in the experiment on Proteus vulgaris, 128 µg/mL (≈ 223 µM); in the experiment on Citrobacter freundii, 64 µg/mL (≈ 111 µM); in experiment [6] it was greater than 128 µg/mL; against Staphylococcus aureus [7], 8 µg/mL (≈ 13.9 µM); against Klebsiella pneumoniae [8], greater than 128 µg/mL. In addition, the MIC with Enterococcus faecium was 16 µg/mL (≈ 27.8 µM); against Pseudomonas aeruginosa, greater than 128 µg/mL; in the experiment on Staphylococcus aureus [9], 2 µg/mL (≈ 3.48 µM).
With `CNC(=N)c1ccc2cc(-c3ccc(Oc4ccc(-c5cc6ccc(C(=N)NC)cc6[nH]5)cn4)cc3)[nH]c2c1`, the MIC is 0.125 µg/mL (≈ 0.243 µM) in experiment [1]; 1 µg/mL (≈ 1.95 µM) against Enterococcus faecalis [2]; greater than 128 µg/mL in the experiment on Klebsiella pneumoniae [3]; greater than 128 µg/mL against Klebsiella pneumoniae [4]; greater than 128 µg/mL in the experiment with Providencia rettgeri; 1 µg/mL (≈ 1.95 µM) against Enterococcus faecalis [5]. Further, the MIC against Escherichia coli was 16 µg/mL (≈ 31.2 µM); against Proteus vulgaris, greater than 128 µg/mL; against Citrobacter freundii, 128 µg/mL (≈ 249 µM); in experiment [6], 128 µg/mL (≈ 249 µM); against Staphylococcus aureus [7], 0.25 µg/mL (≈ 0.487 µM); with Klebsiella pneumoniae [8], 128 µg/mL (≈ 249 µM). The MIC with Enterococcus faecium is 0.25 µg/mL (≈ 0.487 µM); in the experiment on Pseudomonas aeruginosa, greater than 128 µg/mL; against Staphylococcus aureus [9], 0.25 µg/mL (≈ 0.487 µM).
For `COc1cc(Oc2ccc(-c3cc4ccc(C(=N)NC(C)C)cc4[nH]3)cc2)ccc1-c1cc2ccc(C(=N)NC(C)C)cc2[nH]1`, the MIC in [1] worked out at 0.125 µg/mL (≈ 0.209 µM); in the experiment on Enterococcus faecalis [2] it was 0.25 µg/mL (≈ 0.418 µM); in the experiment on Klebsiella pneumoniae [3], 64 µg/mL (≈ 107 µM); in the experiment with Klebsiella pneumoniae [4], 64 µg/mL (≈ 107 µM); in the experiment on Providencia rettgeri, 64 µg/mL (≈ 107 µM); with Enterococcus faecalis [5], 1 µg/mL (≈ 1.67 µM). Moreover, the MIC against Escherichia coli was 16 µg/mL (≈ 26.7 µM); against Proteus vulgaris, 64 µg/mL (≈ 107 µM); against Citrobacter freundii it was 32 µg/mL (≈ 53.4 µM); in [6], greater than 128 µg/mL; against Staphylococcus aureus [7], 0.25 µg/mL (≈ 0.418 µM); in the experiment on Klebsiella pneumoniae [8], 64 µg/mL (≈ 107 µM). Besides, the results for the MIC against Enterococcus faecium, against Pseudomonas aeruginosa and in the experiment on Staphylococcus aureus [9] were 0.25 µg/mL (≈ 0.418 µM), 128 µg/mL (≈ 214 µM) and 0.25 µg/mL (≈ 0.418 µM), respectively.
Take `CN[C@H](CC(C)C)C(=O)N[C@H]1C(=O)N[C@@H](CC(N)=O)C(=O)N[C@H]2C(=O)N[C@H]3C(=O)N[C@H](C(=O)N[C@H](C(=O)O)c4cc(O)cc(O)c4-c4cc3ccc4O)[C@H](O)c3ccc(c(Cl)c3)Oc3cc2cc(c3O[C@@H]2O[C@H](CO)[C@@H](O)[C@H](O)[C@H]2O[C@H]2C[C@](C)(N)[C@H](O)[C@H](C)O2)Oc2ccc(cc2Cl)[C@H]1O` [VANCOMYCIN]: the MIC in experiment [1] was 0.5 µg/mL (≈ 0.345 µM); against Enterococcus faecalis [2] it was 1 µg/mL (≈ 0.69 µM).
